Data: patent US20220340983A1, “SYSTEMS AND ASSAYS FOR IDENTIFYING PU.1 INHIBITORS” (Massachustts Institute of Technology, priority 2019, published 2022)

System: iPS and ES-microglia
Experiment: Intracellular neutral lipid accumulation (BODIPY staining) in microglia
Format: cell-based, human
Description: Top row: Effect of a 2-day treatment with DPBS (10 μL/mL), IFNγ (25 ng/mL), TNFα (25 ng/mL), TGFβ (25 ng/mL), IL1β (25 ng/mL), LPS (25 ng/mL), ATP (100 nM), CD200 (100 ng/mL), IFNα (25 ng/mL), IL12 (5 ng/mL), CX3CL1 (100 ng/mL), CCL5 (100 ng/mL), PMA (10 ng/mL), IFNβ (10 ng/mL), IL33 (10 ng/mL), and IL4 (100 ng/mL). n=52 for DPBS, n=9 for all other inflammatory molecules, except IL33 where n=3. Bottom row: effect after co-application with A11 (20 nM). Scale bar 10 μm. […] Student's unpaired, two sided t-test, ****P≤0.0001, ***P≤0.001, **P≤0.01, *P≤0.05. […] Top row: An increase in number of cells per well with ≥2 BODIPY-positive structures was observed after a 2-day treatment with IFNγ (25 ng/mL), TNFα (25 ng/mL) and IL33 (10 ng/mL) as compared to DPBS treatment. […] Student's unpaired, two-sided t-test, ***P≤0.001, **P≤0.01, *P≤0.05. […] A 2-day treatment with IFNγ (25 ng/mL) caused increase in ATP levels that was reversed by A11 (20 nM) treatment in iPS (left panel) and ES-microglia (right panel). Student's unpaired, twosided t-test, **P≤0.01. […]
FIGS. 17A-17H show results from comparing the effects of multiple inflammatory molecules in iPS-microglia. […] Quantification based on total Vybrant DiI-positive surface area divided by number of Hoechst positive cells per field of view. […]

## O=S(=O)(NCc1ccncc1)c1ccc(C2CCCCC2)cc1 [Compound A11]
A11 alone <20 nM, iPS and ES-microglia
  number of cells containing ≥2 BODIPY-positive structures: no effect
iPS-microglia, 2-day treatment with IFNγ, TNFα or IL33 plus A11
  number of cells with ≥2 BODIPY-positive structures, increase by inflammatory molecules: reversed this increase
